Where two headings read alike, the source gives them in different places.
Target: T1, BCL6 (Homo sapiens, UniProt P41182)
T1 construct: endogenous in cells; host or cells: T47D breast cancer epithelial cells
Assay: Immunofluorescence protocol for high content imaging of BCL6 (degradation) in T47D cells, 3 days compound treatment
Assay type: cell-based
Conditions: for Dmax: read-out: Mean Dmax (%)** category; for DC50: read-out: Mean DC50 (nM)* category
Method in brief: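 High content immunofluorescence imaging (10×, 4 fields/well) of BCL6 using rabbit primary antibody, Alexa-488 secondary, cell mask and Hoechst nuclear stain after PFA fixation. Before staining, T47D cells (7K/well) were exposed for 3 days at 37° C to 3-fold serial dilutions of compound, top final concentration 0.1 or 1 μM.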

[1] = T47D cells, 3 days compound treatment

Compound | Dmax (T47D) [%] | DC50 [nM] | DC50 [1] [nM] | Dmax [1] [%]
CNC(=O)COc1cc2cc(Nc3nc(N4CCC(OC5CCC6(CC5)CN(c5c(F)cc7c(c5F)CN(C5CCC(=O)NC5=O)C7=O)C6)CC4)ncc3Cl)ccc2n(C(C)C)c1=O (centres unmarked) [Compound 324, 2-{[6-({5-chloro-2-[4-({2-[2-(2,6-dioxopiperidin-3-yl)-4,6-difluoro-1-oxo-2,3-dihydro-1H-isoindol-5-yl]-2-azaspiro[3.5]nonan-7-yl}oxy)piperidin-1-yl]pyrimidin-4-yl}amino)-2-oxo-1-(propan-2-yl)-1,2-dihydroquinolin-3-yl]oxy}-N-methylacetamide] | 50 to 70 | < 10 | – | –
CNC(=O)COc1cc2cc(Nc3nc(N4CCC(CN5[C@@H](C)CC6(C[C@@H]5C)CN(c5ccc7c(c5)C(=O)N(C5CCC(=O)NC5=O)C7=O)C6)CC4)ncc3Cl)ccc2n(C(C)C)c1=O (stereo partly drawn) [Compound 255, 2-[(6-{[5-chloro-2-(4-{[(6S,8S)-2-[2-(2,6-dioxopiperidin-3-yl)-1,3-dioxo-2,3-dihydro-1H-isoindol-5-yl]-6,8-dimethyl-2,7-diazaspiro[3.5]nonan-7-yl]methyl}piperidin-1-yl)pyrimidin-4-yl]amino}-2-oxo-1-(propan-2-yl)-1,2-dihydroquinolin-3-yl)oxy]-N-methylacetamide] | 50 to 70 | < 10 | – | –
CCn1c(=O)c(OCC(=O)NC)cc2cc(Nc3nc(N4CCC(O[C@H]5C[C@H](N6CCC(c7cccc8c7C(=O)N(C7CCC(=O)NC7=O)C8=O)CC6)C5)CC4)ncc3Cl)ccc21 (some centres unmarked) [Compound 140, 2-({6-[(5-chloro-2-{4-[(1r,3r)-3-{4-[2-(2,6-dioxopiperidin-3-yl)-1,3-dioxo-2,3-dihydro-1H-isoindol-4-yl]piperidin-1-yl}cyclobutoxy]piperidin-1-yl}pyrimidin-4-yl)amino]-1-ethyl-2-oxo-1,2-dihydroquinolin-3-yl}oxy)-N-methylacetamide] | – | – | 50 to 100 | ≥ 70
CNC(=O)COc1cc2cc(Nc3nc(N4CCC(F)(CN5CC(N6CCC(c7ccc8c(c7)C(=O)N(C7CCC(=O)NC7=O)C8=O)CC6)C5)CC4)ncc3Cl)ccc2n(C(C)C)c1=O (centres unmarked) [Compound 97, 2-({6-[(5-chloro-2-{4-[(3-{4-[2-(2,6-dioxopiperidin-3-yl)-1,3-dioxo-2,3-dihydro-1H-isoindol-5-yl]piperidin-1-yl}azetidin-1-yl)methyl]-4-fluoropiperidin-1-yl}pyrimidin-4-yl)amino]-2-oxo-1-(propan-2-yl)-1,2-dihydroquinolin-3-yl}oxy)-N-methylacetamide] | – | – | < 10 | 50 to 70
CNC(=O)COc1cc2cc(Nc3nc(N4CCN(CC5CCC6(CC5)CN(c5c(F)ccc7c5CN(C5CCC(=O)NC5=O)C7=O)C6)CC4)ncc3Cl)ccc2n(C(C)C)c1=O (centres unmarked) [Compound 314, 2-{[6-({5-chloro-2-[4-({2-[2-(2,6-dioxopiperidin-3-yl)-5-fluoro-1-oxo-2,3-dihydro-1H-isoindol-4-yl]-2-azaspiro[3.5]nonan-7-yl}methyl)piperazin-1-yl]pyrimidin-4-yl}amino)-2-oxo-1-(propan-2-yl)-1,2-dihydroquinolin-3-yl]oxy}-N-methylacetamide] | 50 to 70 | < 10 | – | –
CNC(=O)COc1cc2cc(Nc3nc(N4CCC(O[C@H]5C[C@H](N6CC7(CCN(c8ccc9c(c8)CN(C8CCC(=O)NC8=O)C9=O)CC7)C6)C5)CC4)ncc3Cl)ccc2n(C(C)C)c1=O (some centres unmarked) [Compound 369, 2-({6-[(5-chloro-2-{4-[(1r,3r)-3-{7-[2-(2,6-dioxopiperidin-3-yl)-1-oxo-2,3-dihydro-1H-isoindol-5-yl]-2,7-diazaspiro[3.5]nonan-2-yl}cyclobutoxy]piperidin-1-yl}pyrimidin-4-yl)amino]-2-oxo-1-(propan-2-yl)-1,2-dihydroquinolin-3-yl}oxy)-N-methylacetamide] | ≥ 70 | < 10 | – | –
CNC(=O)COc1cc2cc(Nc3nc(N4CCC5(CCN(CC6CCN(c7cccc8c7C(=O)N(C7CCC(=O)NC7=O)C8=O)CC6)C5)C4)ncc3Cl)ccc2n(C(C)C)c1=O (centres unmarked) [Compound 11] | – | – | 10 to 50 | ≥ 70
CNC(=O)COc1cc2cc(Nc3nc(N4CCN(CC5CCN(c6cc7c(cc6F)C(=O)N(C6CCC(=O)NC6=O)C7)CC5)CC4)ncc3Cl)ccc2n(C(C)C)c1=O (centres unmarked) [Compound 15, 2-{[6-({5-chloro-2-[4-({1-[2-(2,6-dioxopiperidin-3-yl)-6-fluoro-1-oxo-2,3-dihydro-1H-isoindol-5-yl]piperidin-4-yl}methyl)piperazin-1-yl]pyrimidin-4-yl}amino)-2-oxo-1-(propan-2-yl)-1,2-dihydroquinolin-3-yl]oxy}-N-methylacetamide] | – | – | < 10 | 50 to 70
CNC(=O)COc1cc2cc(Nc3nc(N4CCC(OC5CCC(N6CCC(c7cccc8c7C(=O)N(C7CCC(=O)NC7=O)C8=O)CC6)C5)CC4)ncc3Cl)ccc2n(C(C)C)c1=O (centres unmarked) [Compound 148, 2-({6-[(5-chloro-2-{4-[(3-{4-[2-(2,6-dioxopiperidin-3-yl)-1,3-dioxo-2,3-dihydro-1H-isoindol-4-yl]piperidin-1-yl}cyclopentyl)oxy]piperidin-1-yl}pyrimidin-4-yl)amino]-2-oxo-1-(propan-2-yl)-1,2-dihydroquinolin-3-yl}oxy)-N-methylacetamide] | – | – | 50 to 100 | < 50
CNC(=O)COc1cc2cc(Nc3nc(N4CCC(O[C@H]5C[C@H](N6CCC(c7ccc8c(c7F)CN(C7CCC(=O)NC7=O)C8=O)C(F)C6)C5)CC4)ncc3Cl)ccc2n(C(C)C)c1=O (some centres unmarked) [Compound 201, 2-[[6-[[5-chloro-2-[4-[3-[4-[2-(2,6-dioxo-3-piperidyl)-4-fluoro-1-oxo-isoindolin-5-yl]-3-fluoro-1-piperidyl]cyclobutoxy]-1-piperidyl]pyrimidin-4-yl]amino]-1-isopropyl-2-oxo-3-quinolyl]oxy]-N-methyl-acetamide] | – | – | < 10 | ≥ 70
CNC(=O)COc1cc2cc(Nc3cc(N4CCC(O[C@H]5C[C@H](N6CCC(c7ccc8c(c7)C(=O)N(C7CCC(=O)NC7=O)C8=O)CC6)C5)CC4)ncc3Cl)ccc2n(C(C)C)c1=O (some centres unmarked) [Compound 243, 2-({6-[(5-chloro-2-{4-[(1r,3r)-3-{4-[2-(2,6-dioxopiperidin-3-yl)-1,3-dioxo-2,3-dihydro-1H-isoindol-5-yl]piperidin-1-yl}cyclobutoxy]piperidin-1-yl}pyridin-4-yl)amino]-2-oxo-1-(propan-2-yl)-1,2-dihydroquinolin-3-yl}oxy)-N-methylacetamide] | < 50 | 10 to 50 | – | –
CNC(=O)COc1cc2cc(Nc3nc(N4CCC(CN5CC(N6CCN(c7ccc8c(c7)C(=O)N(C7CCC(=O)NC7=O)C8=O)CC6)C5)CC4)ncc3Cl)ccc2n(C(C)C)c1=O (centres unmarked) [Compound 241, 2-({6-[(5-chloro-2-{4-[(3-{4-[2-(2,6-dioxopiperidin-3-yl)-1,3-dioxo-2,3-dihydro-1H-isoindol-5-yl]piperazin-1-yl}azetidin-1-yl)methyl]piperidin-1-yl}pyrimidin-4-yl)amino]-2-oxo-1-(propan-2-yl)-1,2-dihydroquinolin-3-yl}oxy)-N-methylacetamide] | ≥ 70 | 10 to 50 | – | –
CNC(=O)COc1cc2cc(Nc3nc(N4CCN(C(C)(C)C5CCC6(CCN(c7ccc8c(c7)CN(C7CCC(=O)NC7=O)C8=O)C6)C5)CC4)ncc3Cl)ccc2n(C(C)C)c1=O (centres unmarked) [Compound 74, 2-{[6-({5-chloro-2-[4-(2-{2-[2-(2,6-dioxopiperidin-3-yl)-1-oxo-2,3-dihydro-1H-isoindol-5-yl]-2-azaspiro[4.4]nonan-7-yl}propan-2-yl)piperazin-1-yl]pyrimidin-4-yl}amino)-2-oxo-1-(propan-2-yl)-1,2-dihydroquinolin-3-yl]oxy}-N-methylacetamide] | – | – | < 10 | < 50
CNC(=O)COc1cc2cc(Nc3nc(N4CCC(O[C@H]5C[C@H](N6CCN(c7ccc8c(n7)CN(C7CCC(=O)NC7=O)C8=O)[C@H](C)C6)C5)CC4)ncc3Cl)ccc2n(C(C)C)c1=O (stereo partly drawn) [Compound 198, 2-({6-[(5-chloro-2-{4-[(1r,3r)-3-[(3R)-4-[6-(2,6-dioxopiperidin-3-yl)-5-oxo-5H,6H,7H-pyrrolo[3,4-b]pyridin-2-yl]-3-methylpiperazin-1-yl]cyclobutoxy]piperidin-1-yl}pyrimidin-4-yl)amino]-2-oxo-1-(propan-2-yl)-1,2-dihydroquinolin-3-yl}oxy)-N-methylacetamide] | – | – | < 10 | ≥ 70
CNC(=O)COc1cc2cc(Nc3nc(N4CCC(O[C@H]5C[C@H](N6CCN(c7ccc8c(c7F)CN([C@@H]7CCC(=O)NC7=O)C8=O)[C@H](C)C6)C5)CC4)ncc3Cl)ccc2n(C(C)C)c1=O [Compound 395, 2-({6-[(5-chloro-2-{4-[(1r,3r)-3-[(3R)-4-{2-[(3R)-2,6-dioxopiperidin-3-yl]-4-fluoro-1-oxo-2,3-dihydro-1H-isoindol-5-yl}-3-methylpiperazin-1-yl]cyclobutoxy]piperidin-1-yl}pyrimidin-4-yl)amino]-2-oxo-1-(propan-2-yl)-1,2-dihydroquinolin-3-yl}oxy)-N-methylacetamide] | ≥ 70 | < 10 | – | –
CNC(=O)COc1cc2cc(Nc3nc(N4CCN(CC5CCN(c6cc(F)cc7c6CN(C6CCC(=O)NC6=O)C7=O)CC5)CC4)ncc3Cl)ccc2n(C(C)C)c1=O (centres unmarked) [Compound 105, 2-{[6-({5-chloro-2-[4-({1-[2-(2,6-dioxopiperidin-3-yl)-6-fluoro-1-oxo-2,3-dihydro-1H-isoindol-4-yl]piperidin-4-yl}methyl)piperazin-1-yl]pyrimidin-4-yl}amino)-2-oxo-1-(propan-2-yl)-1,2-dihydroquinolin-3-yl]oxy}-N-methylacetamide] | – | – | < 10 | 50 to 70

Source: patent US11986532B2 (Arvinas Operations, Inc., priority 2021, dated 2024)
